Data from the NIST ThermoML archive (doi:10.1007/s10765-009-0581-7).

Assay: xn = mol fraction of the nth substance listed
Conditions: for surface tension liquid-gas: Ring tensiometer; for mass density: 101 kPa, Liquid

CC#N [acetonitrile] + CCCO
Conditions | mass density [kg/m3] | surface tension liquid-gas [mN/m]
278.15 K, x1 = 0.1255 | 813.41 | 25.2
278.15 K, x1 = 0.2452 | 810.66 | 25.4
278.15 K, x1 = 0.3466 | 808.33 | 25.8
278.15 K, x1 = 0.4995 | 804.81 | 26.5
278.15 K, x1 = 0.6449 | 801.47 | 27.4
278.15 K, x1 = 0.7492 | 799.07 | 28.1
278.15 K, x1 = 0.8645 | 796.42 | 29.1
278.15 K, x1 = 0.9101 | 795.37 | 29.5
278.15 K, x1 = 1 | 793.3 | 30.5
283.15 K, x1 = 0.1255 | 809.44 | 24.8
283.15 K, x1 = 0.2452 | 806.61 | 25
283.15 K, x1 = 0.3466 | 804.22 | 25.4
283.15 K, x1 = 0.4995 | 800.61 | 26.1
283.15 K, x1 = 0.6449 | 797.18 | 27
283.15 K, x1 = 0.7492 | 794.72 | 27.7
283.15 K, x1 = 0.8645 | 792 | 28.7
283.15 K, x1 = 0.9101 | 790.92 | 29.1
283.15 K, x1 = 1 | 788.8 | 30.1
288.15 K, x1 = 0.1255 | 805.55 | 24.4
288.15 K, x1 = 0.2452 | 802.64 | 24.7
288.15 K, x1 = 0.3466 | 800.18 | 25
288.15 K, x1 = 0.4995 | 796.46 | 25.7
288.15 K, x1 = 0.6449 | 792.93 | 26.6
288.15 K, x1 = 0.7492 | 790.39 | 27.3
288.15 K, x1 = 0.8645 | 787.59 | 28.3
288.15 K, x1 = 0.9101 | 786.48 | 28.7
288.15 K, x1 = 1 | 784.3 | 29.7
293.15 K, x1 = 0.1255 | 799.41 | 24
293.15 K, x1 = 0.2452 | 796.56 | 24.3
293.15 K, x1 = 0.3466 | 794.15 | 24.6
293.15 K, x1 = 0.4995 | 790.51 | 25.3
293.15 K, x1 = 0.6449 | 787.05 | 26.2
293.15 K, x1 = 0.7492 | 784.57 | 26.9
293.15 K, x1 = 0.8645 | 781.82 | 27.9
293.15 K, x1 = 0.9101 | 780.74 | 28.3
293.15 K, x1 = 1 | 778.3 | 29.3
298.15 K, x1 = 0.1255 | 796.74 | 23.6
298.15 K, x1 = 0.2452 | 794.01 | 23.9
298.15 K, x1 = 0.3466 | 791.7 | 24.2
298.15 K, x1 = 0.4995 | 788.21 | 24.9
298.15 K, x1 = 0.6449 | 784.9 | 25.8
298.15 K, x1 = 0.7492 | 782.52 | 26.6
298.15 K, x1 = 0.8645 | 779.89 | 27.5
298.15 K, x1 = 0.9101 | 778.85 | 27.9
298.15 K, x1 = 1 | 776.75 | 28.9
303.15 K, x1 = 0.1255 | 792.49 | 23.2
303.15 K, x1 = 0.2452 | 789.62 | 23.5
303.15 K, x1 = 0.3466 | 787.18 | 23.8
303.15 K, x1 = 0.4995 | 783.51 | 24.5
303.15 K, x1 = 0.6449 | 780.02 | 25.4
303.15 K, x1 = 0.7492 | 777.52 | 26.2
303.15 K, x1 = 0.8645 | 774.75 | 27.1
303.15 K, x1 = 0.9101 | 773.66 | 27.5
303.15 K, x1 = 1 | 771.5 | 28.5
308.15 K, x1 = 0.1255 | 789.47 | 22.8
308.15 K, x1 = 0.2452 | 786.3 | 23.1
308.15 K, x1 = 0.3466 | 783.62 | 23.4
308.15 K, x1 = 0.4995 | 779.56 | 24.2
308.15 K, x1 = 0.6449 | 775.71 | 25
308.15 K, x1 = 0.7492 | 772.95 | 25.8
308.15 K, x1 = 0.8645 | 769.89 | 26.7
308.15 K, x1 = 0.9101 | 768.68 | 27.1
308.15 K, x1 = 1 | 766.3 | 28.1
313.15 K, x1 = 0.1255 | 783.74 | 22.4
313.15 K, x1 = 0.2452 | 780.62 | 22.7
313.15 K, x1 = 0.3466 | 777.99 | 23
313.15 K, x1 = 0.4995 | 774.01 | 23.8
313.15 K, x1 = 0.6449 | 770.23 | 24.6
313.15 K, x1 = 0.7492 | 767.52 | 25.4
313.15 K, x1 = 0.8645 | 764.52 | 26.3
313.15 K, x1 = 0.9101 | 763.34 | 26.8
313.15 K, x1 = 1 | 761 | 27.7
